For series [1], the target named is T1, human DJ-1 (Cys106-SO2H) (Homo sapiens, UniProt Q99497).
T1 construct: 6His; made in house; host or cells: E. coli BL21
T1 sequence (Q99497 1-189): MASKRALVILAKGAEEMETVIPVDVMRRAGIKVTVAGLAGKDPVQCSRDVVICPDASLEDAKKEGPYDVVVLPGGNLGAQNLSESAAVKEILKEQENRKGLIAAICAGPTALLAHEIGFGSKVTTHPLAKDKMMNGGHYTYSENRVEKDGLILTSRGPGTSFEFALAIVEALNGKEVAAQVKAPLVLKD
The series is described as follows: LC-MS analysis of DJ-1 conjugation with an S-nitrosothiol. It counts as biochemical. To be noted: after iodoacetamide alkylation. The text has this:
(§1) FIG. 20A-C. S-nitrosothiol probes detect endogenous S-sulfinylation. (a) Direct conjugation of human DJ-1 (Cys106-SO2H) with N-acetyl-S-nitrosocysteine methyl ester. (b) MS/MS assignment of product ions from the S-sulfinylated peptide of human DJ-1, confirming direct thiosulfonate formation. (c) Gel-based analysis of S-sulfinylation in mammalian lysates with biotin-GSNO. Lysates are denatured and pre-alkylated with iodoacetamide.
It was next asked what would happen if the detection scheme was reversed, using S-nitrosothiol-linked probes to detect endogenous S-sulfinylation. Similar reactivity was recently reported using aryl-nitroso ligation to several sulfinic acid standards, including glutathione, to form a stable N-sulfonylbenzisoxazolone (see, e.g., Lo Conte, M. & Carroll, K. S. Angew Chem Int Ed Engl 51, 6502-5 (2012)). Despite such progress, there are no reported methods to selectively profile endogenous S-sulfinylation in complex proteomes. […]
Purified human GAPDH was diluted to 0.2 mg/mL in phosphate buffered saline (pH 7.3), and treated with 20 mM iodoacetamide for 30 minutes. […] Eluted peptides were analyzed using a Waters Synapt G2-S HDMS time-of-flight mass spectrometer in positive mode. […] MS data was searched using Waters Protein Lynx Global Server v3.0 using the exact mass calculated for the cysteine thiosulfonate modification.

Series [2] has as its system S-sulfinylated proteins in mammalian lysates. The series is described as follows: Gel-based analysis of S-sulfinylation with biotin-GSNO. Format: biochemical. Particulars: lysates in 6 M urea/PBS, pre-alkylated with iodoacetamide.
Text: as §1
It was next asked what would happen if the detection scheme was reversed, using S-nitrosothiol-linked probes to detect endogenous S-sulfinylation. Similar reactivity was recently reported using aryl-nitroso ligation to several sulfinic acid standards, including glutathione, to form a stable N-sulfonylbenzisoxazolone (see, e.g., Lo Conte, M. & Carroll, K. S. Angew Chem Int Ed Engl 51, 6502-5 (2012)). Despite such progress, there are no reported methods to selectively profile endogenous S-sulfinylation in complex proteomes. In order to test this approach, recombinant human DJ-1 was purified, a redox chaperone that spontaneously forms a stable sulfinic acid at Cys106 (see, e.g., Canet-Aviles, R. M. et al. Proc Natl Acad Sci USA 101, 9103-8 (2004)). After iodoacetamide alkylation of free thiols, N-acetyl-S-nitrosocysteine methyl ester was added to DJ-1, and processed for high-resolution LC-MS analysis (FIG. 20A and FIG. 21)). […]

Series [3] is classed as physicochemical. The procedure: S-nitrosoglutathione (GSNO, Cayman) and sodium phenylsulfinate (Sigma-Aldrich) were used for rate-determination studies at four pH values: pH 1.0 (0.2 N HCl/KCl buffer), pH 4.0 (0.1 M Sodium acetate/Acetic Acid buffer), pH 7.0 (0.1 M potassium phosphate buffer) and pH 10.0 (0.1 M Sodium bicarbonate/Sodium hydroxide buffer). The purity of S-nitrosoglutathione was calculated as 94±1.3% by absorbance at 334 nm using the molar extinction coefficient of 900 M^−1 cm^−1. Assays were performed using a plate reader (Tecan Infinite F500) monitoring absorbance of 2 mM GSNO at 340 nm over a course of 90 minutes in the presence of varying concentrations of sodium phenylsulfinate. Additional experiments confirmed thiosulfonate stability for >5 hours at pH 1, 4, and 7, but hydrolysis at pH 10. GSNO was stable in 6 M urea/PBS for >1 hour. Absorbance data was imported into KaleidaGraph (version 4.02, Synergy Software), and logarithmically fit to the first order exponential decay. The Kobs was calculated for each phenylsulfinic acid concentration, and plotted to calculate the rate constant for the overall reaction.

Each structure is given as a SMILES string. Bounds are passed on as bounds.

The results in this text go back to patent publication US10408843B2, “Compositions and methods for detecting S-nitrosylation and S-sulfinylation” (The Regents of the University of Michigan, priority 2013, dated 2019).

Turning to `COC(=O)[C@H](CSN=O)NC(C)=O` [N-acetyl-S-nitrosocysteine methyl ester, (R)-methyl 2-acetamido-3-(nitrosothio)propanoate], in series [1], the “thiosulfonate formation with DJ-1” value was “confirmed thiosulfonate formation at Cys106-SO2H”.

As for `O=NSC[C@H](NC(=O)CCC(NC(=O)CCCC[C@@H]1SC[C@@H]2NC(=O)N[C@@H]21)C(=O)O)C(=O)NCC(=O)O` (stereo partly drawn) [biotin-GSNO, 5-(((R)-1-((carboxymethyl)amino)-3-(nitrosothio)-1-oxopropan-2-yl)amino)-5-oxo-2-(5-((3aS,4S,6aR)-2-oxohexahydro-1H-thieno[3,4-d]imidazol-4-yl)pentanamido)pentanoic Acid], the “labeling of S-sulfinylated proteins” value in series [2] is given as “distinct profile of putative S-sulfinylated proteins”.

As for `N[C@@H](CCC(=O)N[C@@H](CSN=O)C(=O)NCC(=O)O)C(=O)O` [GSNO, S-nitrosoglutathione, reference compound], the stability in series [3] was more than 1 h.
